Data published in PubChem BioAssay AID1963980 (Molecular Pharmacology Branch, DTP, NCI, 2024).
pIC50: −log10 of the molar value.

System: 475296-252-R-J1-PDC spheroid viability
Assay: Anticancer human tumor 475296-252-R-J1-PDC patient-derived rectal carcinoma cell line growth inhibition [PI3K]
Details: spheroids with HUVEC and MSC; for pIC50: curve of first compound; for viability, T/C: stronger effect = lower value
Outline: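 Multi-cell spheroids combine tumor cells with HUVEC and human MSCs, treated with targeted agents alone or with inavolisib, alpelisib, duvelisib or copanlisib. Concentrations fall in half-log steps from at or near clinical Cmax, or from 10 microM where Cmax is unknown; viability read-out.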

[1] = second compound 0.0316 µM, first compound 0.0316 µM
[2] = second compound 0.0316 µM, first compound 0.1 µM
[3] = second compound 0.0316 µM, first compound 0.316 µM
[4] = second compound 0.0316 µM, first compound 1 µM
[5] = second compound 0.1 µM, first compound 0.0316 µM
[6] = second compound 0.1 µM, first compound 0.1 µM
[7] = second compound 0.1 µM, first compound 0.316 µM
[8] = second compound 0.1 µM, first compound 1 µM
[9] = second compound 0.316 µM, first compound 0.0316 µM
[10] = second compound 0.316 µM, first compound 0.1 µM
[11] = second compound 0.316 µM, first compound 0.316 µM
[12] = second compound 0.316 µM, first compound 1 µM
[13] = second compound 1 µM, first compound 0.0316 µM
[14] = second compound 1 µM, first compound 0.1 µM
[15] = second compound 1 µM, first compound 0.316 µM
[16] = second compound 1 µM, first compound 1 µM
[17] = second compound 3.16 µM, first compound 0.0316 µM
[18] = second compound 3.16 µM, first compound 0.1 µM
[19] = second compound 3.16 µM, first compound 0.316 µM
[20] = second compound 3.16 µM, first compound 1 µM
[21] = second compound 10 µM, first compound 0.0316 µM
[22] = second compound 10 µM, first compound 0.1 µM
[23] = second compound 10 µM, first compound 0.316 µM
[24] = second compound 10 µM, first compound 1 µM
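Note: spheroids exposed to agents for seven days before readout.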

## CC(C)NCC(C(=O)N1CCN(c2ncnc3c2C(C)CC3O)CC1)c1ccc(Cl)cc1 (centres undefined) + Cc1nc(NC(=O)N2CCCC2C(N)=O)sc1-c1ccnc(C(C)(C)C(F)(F)F)c1
Second compound 0.0316 µM
  pIC50: < 5.00
Second compound 0.1 µM
  pIC50: < 5.00
Second compound 0.316 µM
  pIC50: < 5.00
Second compound 1 µM
  pIC50: < 5.00
Second compound 3.16 µM
  pIC50: < 5.00
Second compound 10 µM
  pIC50: < 5.00
[1]
  viability, T/C: 98%
[2]
  viability, T/C: 90.3%
[3]
  viability, T/C: 92%
[4]
  viability, T/C: 89.3%
Second compound 0.0316 µM, first compound 3.16 µM
  viability, T/C: 78.9%
Second compound 0.0316 µM, first compound 10 µM
  viability, T/C: 70.3%
[5]
  viability, T/C: 89.4%
[6]
  viability, T/C: 93.3%
[7]
  viability, T/C: 92.7%
[8]
  viability, T/C: 80.3%
Second compound 0.1 µM, first compound 3.16 µM
  viability, T/C: 62.4%
Second compound 0.1 µM, first compound 10 µM
  viability, T/C: 58.2%
[9]
  viability, T/C: 93.2%
[10]
  viability, T/C: 95.1%
[11]
  viability, T/C: 88.3%
[12]
  viability, T/C: 92.5%
Second compound 0.316 µM, first compound 3.16 µM
  viability, T/C: 68.3%
Second compound 0.316 µM, first compound 10 µM
  viability, T/C: 58.9%
[13]
  viability, T/C: 85%
[14]
  viability, T/C: 92.7%
[15]
  viability, T/C: 88.2%
[16]
  viability, T/C: 90%
Second compound 1 µM, first compound 3.16 µM
  viability, T/C: 81.3%
Second compound 1 µM, first compound 10 µM
  viability, T/C: 58.7%
[17]
  viability, T/C: 82.5%
[18]
  viability, T/C: 96.6%
[19]
  viability, T/C: 88.8%
[20]
  viability, T/C: 89.4%
Second compound 3.16 µM, first compound 3.16 µM
  viability, T/C: 77.7%
Second compound 3.16 µM, first compound 10 µM
  viability, T/C: 65.8%
[21]
  viability, T/C: 96%
[22]
  viability, T/C: 81.3%
[23]
  viability, T/C: 89.3%
[24]
  viability, T/C: 85%
Second compound 10 µM, first compound 3.16 µM
  viability, T/C: 77.2%
Second compound 10 µM, first compound 10 µM
  viability, T/C: 64.3%

## CCN1CCN(Cc2ccc(Nc3ncc(F)c(-c4cc(F)c5nc(C)n(C(C)C)c5c4)n3)nc2)CC1 + Cc1nc(NC(=O)N2CCCC2C(N)=O)sc1-c1ccnc(C(C)(C)C(F)(F)F)c1
Second compound 0.0316 µM
  pIC50: < 6.00
Second compound 0.1 µM
  pIC50: < 6.00
Second compound 0.316 µM
  pIC50: < 6.00
Second compound 1 µM
  pIC50: < 6.00
Second compound 3.16 µM
  pIC50: < 6.00
Second compound 10 µM
  pIC50: < 6.00
Second compound 0.0316 µM, first compound 0.00316 µM
  viability, T/C: 95.8%
Second compound 0.0316 µM, first compound 0.01 µM
  viability, T/C: 93.4%
[1]
  viability, T/C: 107%
[2]
  viability, T/C: 90%
[3]
  viability, T/C: 114%
[4]
  viability, T/C: 104%
Second compound 0.1 µM, first compound 0.00316 µM
  viability, T/C: 95.8%
Second compound 0.1 µM, first compound 0.01 µM
  viability, T/C: 97.8%
[5]
  viability, T/C: 112%
[6]
  viability, T/C: 90.4%
[7]
  viability, T/C: 98.8%
[8]
  viability, T/C: 84.3%
Second compound 0.316 µM, first compound 0.00316 µM
  viability, T/C: 107%
Second compound 0.316 µM, first compound 0.01 µM
  viability, T/C: 105%
[9]
  viability, T/C: 87.6%
[10]
  viability, T/C: 99.4%
[11]
  viability, T/C: 98%
[12]
  viability, T/C: 88.6%
Second compound 1 µM, first compound 0.00316 µM
  viability, T/C: 81.4%
Second compound 1 µM, first compound 0.01 µM
  viability, T/C: 90.5%
[13]
  viability, T/C: 98.7%
[14]
  viability, T/C: 88.5%
[15]
  viability, T/C: 89.2%
[16]
  viability, T/C: 87.7%
Second compound 3.16 µM, first compound 0.00316 µM
  viability, T/C: 98.2%
Second compound 3.16 µM, first compound 0.01 µM
  viability, T/C: 108%
[17]
  viability, T/C: 82.5%
[18]
  viability, T/C: 95%
[19]
  viability, T/C: 90.7%
[20]
  viability, T/C: 73.1%
Second compound 10 µM, first compound 0.00316 µM
  viability, T/C: 93.3%
Second compound 10 µM, first compound 0.01 µM
  viability, T/C: 88.3%
[21]
  viability, T/C: 96.7%
[22]
  viability, T/C: 81.1%
[23]
  viability, T/C: 90.4%
[24]
  viability, T/C: 70.4%
